From ChEMBL document CHEMBL3785036 (J Pharm Sci, 1974)

How the values were obtained:
Assay type in all cases: ADME, organism-based
[1] = Drug excretion in human subject slow inactivator assessed as sum of isoniazid plus hydrazones, acetylisoniazid, isonicotinic acid and isonicotinuric acid level in urine at 681 mg, iv infused at constant rate 5.4 min measured 648 mins after start of drug injection by colorimetry; conditions: in vivo
[2] = Drug excretion in human subject rapid inactivator assessed as total isonicotinoyl compound level in urine at 670 mg, iv infused at constant rate 5.2min measured 259 mins after start of drug injection by colorimetry; conditions: in vivo
[3] = Drug metabolism in human rapid inactivators assessed as excretion of acetylisoniazid in urine at 1 g, iv by colorimetry; conditions: in vivo
[4] = Drug excretion in human subject slow inactivator assessed as sum of isoniazid plus hydrazones, acetylisoniazid, isonicotinic acid and isonicotinuric acid level in urine at 681 mg, iv infused at constant rate 5.4 min measured 747 mins after start of drug injection by colorimetry; conditions: in vivo, 12.45 h
[5] = Drug excretion in human subject slow inactivator assessed as total isonicotinoyl compound level in urine at 681 mg, iv infused at constant rate 5.4 min measured 243.5 mins after start of drug injection by colorimetry; conditions: in vivo
[6] = Drug excretion in human subject slow inactivator assessed as total isonicotinoyl compound level in urine at 681 mg, iv infused at constant rate 5.4 min measured 339.3 mins after start of drug injection by colorimetry; conditions: in vivo, 5.655 h
[7] = Drug excretion in human subject rapid inactivator assessed as sum of isoniazid plus hydrazones, acetylisoniazid, isonicotinic acid and isonicotinuric acid level in urine at 670 mg, iv infused at constant rate 5.2min measured 296 mins after start of drug injection by colorimetry; conditions: in vivo
[8] = Drug excretion in human subject rapid inactivator assessed as sum of isoniazid plus hydrazones, acetylisoniazid, isonicotinic acid and isonicotinuric acid level in urine at 670 mg, iv infused at constant rate 5.2min measured 259 mins after start of drug injection by colorimetry; conditions: in vivo
[9] = Drug excretion in human rapid inactivators urine assessed as isonicotinuric acid level at 1 g, iv by colorimetry; conditions: in vivo
[10] = Drug excretion in human subject slow inactivator assessed as sum of isoniazid plus hydrazones, acetylisoniazid, isonicotinic acid and isonicotinuric acid level in urine at 681 mg, iv infused at constant rate 5.4 min measured 396 mins after start of drug injection by colorimetry; conditions: in vivo, 6.6 h
[11] = Drug excretion in human subject rapid inactivator assessed as total isonicotinoyl compound level in urine at 670 mg, iv infused at constant rate 5.2min measured 158 mins after start of drug injection by colorimetry; conditions: in vivo
[12] = Drug excretion in human subject rapid inactivator assessed as sum of isoniazid plus hydrazones, acetylisoniazid, isonicotinic acid and isonicotinuric acid level in urine at 670 mg, iv infused at constant rate 5.2min measured 94 mins after start of drug injection by colorimetry; conditions: in vivo
[13] = Drug excretion in human subject slow inactivator assessed as total isonicotinoyl compound level in urine at 681 mg, iv infused at constant rate 5.4 min measured 276.3 mins after start of drug injection by colorimetry; conditions: in vivo, 4.605 h
[14] = Drug excretion in human subject slow inactivator assessed as sum of isoniazid plus hydrazones, acetylisoniazid, isonicotinic acid and isonicotinuric acid level in urine at 681 mg, iv infused at constant rate 5.4 min measured 116 mins after start of drug injection by colorimetry; conditions: in vivo
[15] = Drug excretion in human subject slow inactivator assessed as total isonicotinoyl compound level in urine at 681 mg, iv infused at constant rate 5.4 min measured 59.1 mins after start of drug injection by colorimetry; conditions: in vivo, 0.985 h
[16] = Drug excretion in human rapid inactivators urine at 1 g, iv by colorimetry; conditions: in vivo
[17] = Drug excretion in human subject slow inactivator assessed as total isonicotinoyl compound level in urine at 681 mg, iv infused at constant rate 5.4 min measured 208.7 mins after start of drug injection by colorimetry; conditions: in vivo, 3.47833 h
[18] = Drug excretion in human subject rapid inactivator assessed as total isonicotinoyl compound level in urine at 670 mg, iv infused at constant rate 5.2min measured 400 mins after start of drug injection by colorimetry; conditions: in vivo
[19] = Drug metabolism in human slow inactivators assessed as excretion of alpha-ketoglutaric acid isonicotinoylhydrazone in urine at 1 g, iv by colorimetry; conditions: in vivo
[20] = Drug excretion in human subject rapid inactivator assessed as sum of isoniazid plus hydrazones, acetylisoniazid, isonicotinic acid and isonicotinuric acid level in urine at 670 mg, iv infused at constant rate 5.2min measured 426 mins after start of drug injection by colorimetry; conditions: in vivo
[21] = Drug excretion in human subject rapid inactivator assessed as total isonicotinoyl compound level in urine at 670 mg, iv infused at constant rate 5.2min measured 32 mins after start of drug injection by colorimetry; conditions: in vivo
[22] = Drug excretion in human subject rapid inactivator assessed as sum of isoniazid plus hydrazones, acetylisoniazid, isonicotinic acid and isonicotinuric acid level in urine at 670 mg, iv infused at constant rate 5.2min measured 486 mins after start of drug injection by colorimetry; conditions: in vivo, 8.1 h
[23] = Drug excretion in human subject rapid inactivator assessed as total isonicotinoyl compound level in urine at 670 mg, iv infused at constant rate 5.2min measured 195 mins after start of drug injection by colorimetry; conditions: in vivo, 3.25 h
[24] = Drug excretion in human subject slow inactivator assessed as total isonicotinoyl compound level in urine at 681 mg, iv infused at constant rate 5.4 min measured 747 mins after start of drug injection by colorimetry; conditions: in vivo, 12.45 h
[25] = Drug metabolism in human slow inactivators assessed as excretion of acetylisoniazid in urine at 1 g, iv by colorimetry; conditions: in vivo
[26] = Drug excretion in human subject slow inactivator assessed as total isonicotinoyl compound level in urine at 681 mg, iv infused at constant rate 5.4 min measured 524 mins after start of drug injection by colorimetry; conditions: in vivo
[27] = Drug excretion in human subject rapid inactivator assessed as total isonicotinoyl compound level in urine at 670 mg, iv infused at constant rate 5.2min measured 516 mins after start of drug injection by colorimetry; conditions: in vivo
[28] = Drug excretion in human subject slow inactivator assessed as sum of isoniazid plus hydrazones, acetylisoniazid, isonicotinic acid and isonicotinuric acid level in urine at 681 mg, iv infused at constant rate 5.4 min measured 243.5 mins after start of drug injection by colorimetry; conditions: in vivo
[29] = Drug metabolism in human rapid inactivators assessed as excretion of isonicotinic acid in urine at 1 g, iv by colorimetry; conditions: in vivo
[30] = Drug excretion in human rapid inactivators urine assessed as total isonicotinoyl compounds at 1 g, iv by colorimetry; conditions: in vivo
[31] = Drug excretion in human subject rapid inactivator assessed as total isonicotinoyl compound level in urine at 670 mg, iv infused at constant rate 5.2min measured 227 mins after start of drug injection by colorimetry; conditions: in vivo
[32] = Drug excretion in human subject rapid inactivator assessed as total isonicotinoyl compound level in urine at 670 mg, iv infused at constant rate 5.2min measured 486 mins after start of drug injection by colorimetry; conditions: in vivo, 8.1 h
[33] = Drug excretion in human slow inactivators urine assessed as acetylisoniazid level at 1 g, iv by colorimetry; conditions: in vivo

- Drug excretion [1]: 12.82 mg
- Drug excretion [2]: 39.7 mg
- Drug metabolism [3]: 43.8 %molar
- Drug excretion [4]: 10.074 mg
- Drug excretion [5]: 36.2 mg
- Drug excretion [6]: 32 mg
- Drug excretion [7]: 39.4 mg
- Drug excretion [8]: 40.5 mg
- Drug excretion [9]: 101%
- Drug excretion [10]: 17.18 mg
- Drug excretion [11]: 51.7 mg
- Drug excretion [12]: 48.1 mg
- Drug excretion [13]: 33.2 mg
- Drug excretion [14]: 32.27 mg
- Drug excretion [15]: 33.7 mg
- Drug excretion [16]: 3.6 %molar
- Drug excretion [17]: 27.1 mg
- Drug excretion [18]: 18.5 mg
- Drug metabolism [19]: 6.9 %molar
- Drug excretion [20]: 16.5 mg
- Drug excretion [21]: 45.9 mg
- Drug excretion [22]: 13 mg
- Drug excretion [23]: 59.9 mg
- Drug excretion [24]: 9.44 mg
- Drug metabolism [25]: 34.3 %molar
- Drug excretion [26]: 10.4 mg
- Drug excretion [27]: 17 mg
- Drug excretion [28]: 37.21 mg
- Drug metabolism [29]: 27.1 %molar
- Drug excretion [30]: 98.8%
- Drug excretion [31]: 38.8 mg
- Drug excretion [32]: 12.5 mg
- Drug excretion [33]: 97%
Structure (SMILES): NNC(=O)c1ccncc1 [ISONIAZID]
